Reference: US20050197338A1, “Substituted pyrazole urea compounds for the treatment of inflammation” (priority 2003, published 2005)
Structures can show the parent of a compound that is named as a salt.

Biological target: T1, human IKK-2 (rhIKK-2 homodimer) (Homo sapiens, UniProt O14920)
T1 construct: FLAG (DYKDDDDKD) (C); made in house; host or cells: insect cells (baculovirus, pFastBac)
T1 sequence (O14920 1-756): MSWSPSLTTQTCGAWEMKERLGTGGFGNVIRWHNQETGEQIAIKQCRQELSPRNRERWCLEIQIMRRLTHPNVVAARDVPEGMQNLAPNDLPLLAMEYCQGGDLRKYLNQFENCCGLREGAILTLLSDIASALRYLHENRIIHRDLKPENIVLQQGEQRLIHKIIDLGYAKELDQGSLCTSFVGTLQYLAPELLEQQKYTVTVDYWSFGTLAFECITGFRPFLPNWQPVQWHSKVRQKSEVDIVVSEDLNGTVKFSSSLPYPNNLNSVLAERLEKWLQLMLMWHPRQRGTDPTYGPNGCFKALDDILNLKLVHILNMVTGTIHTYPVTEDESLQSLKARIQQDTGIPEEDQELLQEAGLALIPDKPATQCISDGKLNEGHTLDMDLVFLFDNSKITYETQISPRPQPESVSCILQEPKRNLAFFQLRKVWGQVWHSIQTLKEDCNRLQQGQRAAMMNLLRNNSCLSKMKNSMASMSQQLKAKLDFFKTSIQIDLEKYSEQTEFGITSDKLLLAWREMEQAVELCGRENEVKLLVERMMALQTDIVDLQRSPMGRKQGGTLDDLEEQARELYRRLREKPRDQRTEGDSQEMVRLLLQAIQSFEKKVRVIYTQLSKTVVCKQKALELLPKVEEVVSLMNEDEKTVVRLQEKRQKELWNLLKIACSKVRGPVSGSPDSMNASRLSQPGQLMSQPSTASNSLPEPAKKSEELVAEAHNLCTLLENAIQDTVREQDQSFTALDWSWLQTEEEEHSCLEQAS
Experiment: IKK-2 Resin Enzyme Assay (Human IKK-2 Enzyme Assay)
Format: biochemical
Conditions: human IKK-2, resin enzyme assay; read-out: IC50 (μM) hIKK-2
Excerpt: Materials: SAM^2™96 Biotin capture plates were from Promega. Anti-FLAG affinity resin, FLAG-peptide, NP-40 (Nonidet P-40), BSA, ATP, ADP, AMP, LPS (E. coli serotype 0111:B4), and dithiothreitol were obtained from Sigma Chemicals. Antibodies specific for NEMO (IKK-γ) (FL-419), IKK-1 (H-744), IKK-2(H-470) and IκBa(C-21) were purchased from Santa Cruz Biotechnology. Ni-NTA resin was purchased from Qiagen. Peptides were purchased from American Peptide Company. Protease inhibitor cocktail tablets were from Boehringer Mannheim. Sephacryl S-300 column was from Pharmacia LKB Biotechnology. Centriprep-10 concentrators with a molecular weight cutoff of 10 kDa and membranes with molecular weight cut-off of 30 kDa were obtained from Amicon. [γ-^33P] ATP (2500 Ci/mmol) and [γ-^32P] ATP (6000 Ci/mmol) were purchased from Amersham. The other reagents used were of the highest grade commercially available.
Cloning and Expression: cDNAs of human IKK-1 and IKK-2 were amplified by reverse transcriptase-polymerase chain reaction from human placental RNA (Clonetech). hlKK-1 was subcloned into pFastBac HTa (Life Technologies) and expressed as N-terminal His6-tagged fusion protein. The hlKK-2 cDNA was amplified using a reverse oligonucleotide primer which incorporated the peptide sequence for a FLAG-epitope tag at the C-terminus of the IKK-2 coding region (DYKDDDDKD). The hlKK-2:FLAG cDNA was subcloned into the baculovirus vector pFastBac. The rhIKK-2 ([…]) mutant was constructed in the same vector used for wild type rhIKK-2 using a QuikChange™ mutagenesis kit (Stratagene). Viral stocks of each construct were used to infect insect cells grown in 40 L suspension culture. […] Cell lysates were stored at −80° C. until purification of the recombinant proteins was undertaken as described below.
Enzyme Isolation: All purification procedures were carried out at 4° C. unless otherwise noted. Buffers used are: buffer A: 20 mM Tris-HCl, pH 7.6, containing 50 mM NaCl, 20 mM NaF, 20 mM β-Glycerophosphate, 500 μM sodium orthovanadate, 2.5 mM metabisulfite, 5 mM benzamidine, 1 mM EDTA, 0.5 mM EGTA, 10% glycerol, 1 mM DTT, 1× Complete™ protease inhibitors; buffer B: same as buffer A, except 150 mM NaCl, and buffer C: same as buffer A, except 500 mM NaCl.
Isolation of rhIKK-2 homodimer: A 10-liter culture of baculovirus-expressing IKK-2 tagged with FLAG peptide was centrifuged and the cell pellet (MOI=0.1 and 1=72 h) was re-suspended in buffer A. These cells were microfluidized, and centrifuged at 100,000×g for 45 min. Supernatant was passed over a G-25 column equilibrated with Buffer A. Protein peak was collected and incubated with anti-FLAG affinity resin on a rotator overnight in buffer B. The resin was washed in batch with 10-15 bed volumes of buffer C. Washed resin was poured into a column and rhIKK-2 homodimer was eluted using 5 bed volumes of buffer B containing FLAG peptide. 5 mM DTT, 0.1% NP-40 and BSA (concentrated to 0.1% in final amount) was added to the eluted enzyme before concentrating in using an Amicon membrane with a molecular weight cut-off of 30 kDa. Enzyme was aliquoted and stored at −80° C.
IKK-2 Resin Enzyme Assay: IKK-2 kinase activity was measured using a biotinylated IκBα peptide (Gly-Leu-Lys-Lys-Glu-Arg-Leu-Leu-Asp-Asp-Arg-His-Asp-Ser32-Gly-Leu-Asp-Ser36-Met-Lys-Asp-Glu-Glu) (American Peptide Co.). 20 μL of the standard reaction mixture contained 5 μM biotinylated IκBα peptide, 0.1 μCi/reaction [γ-^33P] ATP (Amersham) (about 1×10^5 cpm), 1 μM ATP (Sigma), 1 mM DTT (Sigma), 2 mM MgCl2 (Sigma), 2 mM MnCl2 (Sigma), 10 mM NaF (Sigma), 25 mM Hepes (Sigma) buffer, pH 7.6 and 20 μL enzyme solution and 10 μL inhibitor in a final volume of 50 μL. After incubation at 25° C. for 30 min, 150 μL resin (Dowex anion-exchange resin AG1X8 200-400 mesh) in 900 mM formate, pH 3.0 was added to each well to stop the reaction. Resin was allowed to settle for 1 h and 50 μL of supernatant was removed to a Micolite-2 flat bottom plate (Dynex). […]

Question: For `COc1ccc(CNC(=O)c2nn(-c3cccc(O)c3)cc2NC(N)=O)cc1` [Example 299, 1-(3-hydroxy-phenyl)-4-ureido-1H-pyrazole-3-carboxylic acid 4-methoxy-benzylamide], which IC50 is on record?
Answer: 0.595 µM

Question: For `NC(=O)Nc1cn(-c2ccc(-c3cccc(Cl)c3Cl)cc2)nc1C(N)=O` [Example 133, 4-[(aminocarbonyl)amino]-1-(2′,3′-dichloro-1,1′-biphenyl-4-yl)-pyrazole-3-carboxamide], which IC50 is on record?
Answer: 1.63 µM

Question: How did the IC50 turn out when `NC(=O)Nc1cn(-c2ccc(SC3CCCC3)cc2)nc1C(N)=O` [Example 207, 1-(3-carbamoyl-1-(4-(cyclopentylthio)phenyl)-1H-pyrazol-4-yl)urea] was run?
Answer: 1.32 µM

Question: How did the IC50 turn out when `NC(=O)Nc1cn(-c2cccc(-c3ccc(CO)cc3)c2)nc1C(N)=O` [Example 48, 4-[(aminocarbonyl)amino]-1-[4′-(hydroxymethyl)-1,1′-biphenyl-3-yl]-1H-pyrazole-3-carboxamide] was run?
Answer: 1.04 µM

Question: With `COC(=O)c1cccc(-n2cc(NC(N)=O)c(C(N)=O)n2)c1` [Example 185, methyl 3-{3-(aminocarbonyl)-4-[(aminocarbonyl)amino]-1H-pyrazol-1-yl}benzoate] as the molecule, how does the IC50 read?
Answer: 5.88 µM

Question: For `COc1ccc(CNC(=O)CCc2cccc(-c3ccc(-n4cc(NC(N)=O)c(C(N)=O)n4)cc3)c2)c(OC)c1` [Example 380, 4-[(aminocarbonyl)amino]-1-(3′-{3-[(2,4-dimethoxybenzyl)amino]-3-oxopropyl}-1,1′-biphenyl-4-yl)-1H-pyrazole-3-carboxamide], which IC50 is on record?
Answer: 1.54 µM

Question: `NC(=O)Nc1cn(-c2cccc(-c3cccc(C(=O)NC4CC4)c3)c2)nc1C(N)=O` [Example 81] was tested. Which IC50 did it give?
Answer: 1.65 µM

Question: For `N#CCOc1cccc(-c2ccc(-n3cc(NC(N)=O)c(C(N)=O)n3)cc2Cl)c1` [Example 220, 4-[(aminocarbonyl)amino]-1-[2-chloro-3′-(cyanomethoxy)-1,1′-biphenyl-4-yl]-1H-pyrazole-3-carboxamide], which IC50 is on record?
Answer: 1.57 µM

Question: Which IC50 does the source give for `Cc1cc(-n2cc(NC(N)=O)c(C(N)=O)n2)ccc1Cl` [Example 302, 4-[(aminocarbonyl)amino]-1-(4-chloro-3-methylphenyl)-1H-pyrazole-3-carboxamide] here?
Answer: 0.229 µM

Question: `CC(C)CCSc1ccc(-n2cc(NC(N)=O)c(C(N)=O)n2)cc1` [Example 291, 1-(3-carbamoyl-1-(4-(isopentylthio)phenyl)-1H-pyrazol-4-yl)urea] was tested. Which IC50 did it give?
Answer: 6.23 µM

Question: For `NC(=O)NC(=O)Nc1cn(-c2ccc(Br)c(C(F)(F)F)c2)nc1C(N)=O` [Example 2, 4-({[(aminocarbonyl)amino]carbonyl}amino)-1-[4-bromo-3-(trifluoromethyl)phenyl]-1H-pyrazole-3-carboxamide], which IC50 is on record?
Answer: 10.7 µM

Question: With `CNC(=O)CCc1cccc(-c2ccc(-n3cc(NC(N)=O)c(C(N)=O)n3)cc2)c1` [Example 381, 4-[(aminocarbonyl)amino]-1-{3′-[3-(methylamino)-3-oxopropyl]-1,1′-biphenyl-4-yl}-1H-pyrazole-3-carboxamide] as the molecule, how does the IC50 read?
Answer: 0.42 µM

Question: Which IC50 does the source give for `NC(=O)Nc1cn(-c2ccc(-c3ccccc3F)cc2)nc1C(N)=O` [Example 30, 4-[(aminocarbonyl)amino]-1-(2′-fluoro-1,1′-biphenyl-4-yl)-1H-pyrazole-3-carboxamide] here?
Answer: 3 µM

Question: With `N#C/C=C/c1cccc(-c2ccc(-n3cc(NC(N)=O)c(C(N)=O)n3)cc2)c1` [Example 32, 4-[(aminocarbonyl)amino]-1-{3′-[(E)-2-cyanovinyl]-1,1′-biphenyl-4-yl}-1H-pyrazole-3-carboxamide] as the molecule, how does the IC50 read?
Answer: 1.16 µM

Question: How did the IC50 turn out when `N#CCOc1cccc(-c2ccc(-n3cc(NC(N)=O)c(C(N)=O)n3)cc2)c1` [Example 166, 4-[(aminocarbonyl)amino]-1-[3′-(cyanomethoxy)-1,1′-biphenyl-4-yl]-1H-pyrazole-3-carboxamide] was run?
Answer: 0.38 µM

Question: For `COc1ccc(-n2cc(NC(N)=O)c(C(N)=O)n2)cc1` [Example 10, 4-[(aminocarbonyl)amino]-1-(4-methoxyphenyl)-1H-pyrazole-3-carboxamide trifluoroacetate], which IC50 is on record?
Answer: 2.91 µM

Question: How did the IC50 turn out when `CCNC(=O)COc1ccc(F)cc1-c1ccc(-n2cc(NC(N)=O)c(C(N)=O)n2)cc1` [Example 257, 4-[(aminocarbonyl)amino]-1-{5′-fluoro-2′-[2-(ethylamino)-2-oxoethoxy]-1,1′-biphenyl-4-yl}-1H-pyrazole-3-carboxamide] was run?
Answer: 1.35 µM

Question: Which IC50 does the source give for `NC(=O)Nc1cn(-c2ccc(-c3ccccc3CCC(=O)O)cc2)nc1C(N)=O` [Example 379, 3-(4′-{3-(aminocarbonyl)-4-[(aminocarbonyl)amino]-1H-pyrazol-1-yl}-1,1′-biphenyl-2-yl)propanoic acid] here?
Answer: 1.95 µM

Question: How did the IC50 turn out when `Cc1cc(-n2cc(NC(N)=O)c(C(N)=O)n2)ccn1` [Example 322, 4-[(aminocarbonyl)amino]-1-(2-methylpyridin-4-yl)-1H-pyrazole-3-carboxamide] was run?
Answer: 2.19 µM

Question: `NC(=O)Nc1cn(-c2cccc(I)c2)nc1C(N)=O` [Example 195, 1-(3-carbamoyl-1-(3-iodophenyl)-1H-pyrazol-4-yl)urea] was tested. Which IC50 did it give?
Answer: 0.387 µM

Question: `CSc1cccc(-c2cccc(-n3cc(NC(N)=O)c(C(N)=O)n3)c2)c1` [Example 357, 4-[(aminocarbonyl)amino]-1-[3′-(methylthio)-1,1′-biphenyl-3-yl]-1H-pyrazole-3-carboxamide] was tested. Which IC50 did it give?
Answer: > 20 µM

Question: With `CNC(=O)Nc1cn(-c2ccc(I)c(C)c2)nc1C(N)=O` [Example 245, 1-(4-Iodo-3-methyl-phenyl)-4-(3-methyl-ureido)-1H-pyrazole-3-carboxylic acid amide] as the molecule, how does the IC50 read?
Answer: 5.51 µM

Question: How did the IC50 turn out when `NC(=O)Nc1nn(-c2ccc(-c3ccc(Cl)cc3Cl)cc2)cc1C(N)=O` [Example 134, 4-[(aminocarbonyl)amino]-1-(2′,4′-dichloro-1,1′-biphenyl-4-yl)-1-pyrazole-3-carboxamide] was run?
Answer: 3.84 µM

Question: Which IC50 does the source give for `CCCCc1ccc(-c2ccc(-n3cc(C(N)=O)c(NC(N)=O)n3)cc2)cc1` [Example 128] here?
Answer: > 20 µM

Question: For `Cc1cc(-n2cc(NC(N)=O)c(C(N)=O)n2)ccc1-c1ccc(F)cc1O` [Example 241, 1-(4′-Fluoro-2′-hydroxy-2-methyl-biphenyl-4-yl)-4-ureido-1H-pyrazole-3-carboxylic acid amide], which IC50 is on record?
Answer: 1.68 µM
